The subject of assay [1] is MDA-MB-435. The experiment in a line: Cytotoxicity against human MDA-MB-435 cells expressing Bcl-xL, Bcl-2 and Mcl-1 after 72 hrs by MTT assay. Conditions: MDA-MB-435, 72 h. The format is functional, cell-based. (Tetrazolium dyes change colour on reduction, which living cells bring about.)
The test system of assay [2] is Raji. In words: Cytotoxicity against human Raji cells expressing Bcl-xL, Bcl-2 and Mcl-1 after 72 hrs by MTT assay. It is filed as functional, cell-based.
Assay [3] concerns HCT-116. The experiment in a line: Cytotoxicity against human HCT116 cells expressing Bcl-xL, Bcl-2 and Mcl-1 after 72 hrs by MTT assay. The format is functional, cell-based. Conditions: HCT-116, 72 h.
Assay [4] addresses Bcl-2-like protein 1 (Homo sapiens, UniProt Q07817). In words: Binding affinity to Bcl-xL by competitive fluorescence polarization assay. In general terms: Fluorescence polarisation rises when a labelled molecule tumbles more slowly, as on binding a larger partner.
The target of assay [5] is Apoptosis regulator Bcl-2 (Homo sapiens, UniProt P10415). In words: Binding affinity to Bcl-2 by competitive fluorescence polarization assay.
Apoptosis regulator Bcl-2, sequence (P10415 whole entry): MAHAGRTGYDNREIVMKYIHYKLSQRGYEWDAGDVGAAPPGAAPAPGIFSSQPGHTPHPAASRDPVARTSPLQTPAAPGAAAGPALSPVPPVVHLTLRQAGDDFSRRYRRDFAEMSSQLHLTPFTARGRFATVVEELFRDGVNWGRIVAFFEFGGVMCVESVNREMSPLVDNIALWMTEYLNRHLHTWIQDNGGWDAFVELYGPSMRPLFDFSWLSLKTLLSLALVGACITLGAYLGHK
The target of assay [6] is Induced myeloid leukemia cell differentiation protein Mcl-1 (Homo sapiens, UniProt Q07820). In words: Binding affinity to Mcl-1 by competitive fluorescence polarization assay.
Induced myeloid leukemia cell differentiation protein Mcl-1, sequence (Q07820 whole entry): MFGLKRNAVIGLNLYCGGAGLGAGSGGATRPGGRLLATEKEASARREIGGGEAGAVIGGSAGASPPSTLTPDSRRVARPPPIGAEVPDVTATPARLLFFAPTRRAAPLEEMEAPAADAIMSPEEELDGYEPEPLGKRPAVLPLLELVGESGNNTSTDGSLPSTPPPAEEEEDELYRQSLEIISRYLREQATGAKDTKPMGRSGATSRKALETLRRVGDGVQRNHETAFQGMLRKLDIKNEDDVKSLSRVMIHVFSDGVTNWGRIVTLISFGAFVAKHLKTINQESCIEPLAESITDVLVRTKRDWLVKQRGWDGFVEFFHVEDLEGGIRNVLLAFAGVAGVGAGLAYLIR
Assay [7] deals with MDA-MB-435. In words: Cytotoxicity against human MDA-MB-435 cells expressing Bcl-xL, Bcl-2 and Mcl-1 at 100 ug/ml after 72 hrs by MTT assay relative to control. It is filed as functional. The settings on record: MDA-MB-435, 72 h, read-out: GI.
For assay [8], the system named is Raji. The experiment in a line: Cytotoxicity against human Raji cells expressing Bcl-xL, Bcl-2 and Mcl-1 at 100 ug/ml after 72 hrs by MTT assay relative to control. The format is functional. Conditions: read-out: GI.

Bcl-2-like protein 1, sequence (Q07817 whole entry): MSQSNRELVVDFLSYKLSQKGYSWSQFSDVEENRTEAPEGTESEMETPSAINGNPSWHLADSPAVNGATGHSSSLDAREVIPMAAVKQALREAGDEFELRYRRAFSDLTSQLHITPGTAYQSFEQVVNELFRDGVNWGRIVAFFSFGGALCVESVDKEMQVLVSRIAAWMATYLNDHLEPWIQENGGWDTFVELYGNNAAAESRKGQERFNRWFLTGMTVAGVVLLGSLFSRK

The IC50 is the concentration needed to halve the response being measured. Low values mean inhibition by little substance, high ones a need for much substance. Take `Cc1cccc(C(=O)Nc2ccc(C(=O)NS(=O)(=O)c3ccc(NCCSc4ccccc4)c([N+](=O)[O-])c3)cc2)c1`: the half-maximal inhibitory concentration (IC50) in assay [1] was more than 169 µM; in assay [2], 92.6 µM; in assay [3] it was 169 µM.

One may read the Ki as the equilibrium dissociation constant of an inhibitor or competing ligand from its target. The low end stands for tighter binding, the high end for weaker binding. Turning to `O=C(Nc1ccc(C(=O)NS(=O)(=O)c2ccc(NCCSc3ccccc3)c([N+](=O)[O-])c2)cc1)c1ccccc1`, the results for the inhibition constant (Ki) in assay [4], in assay [5] and in assay [6] were 2.51 µM, 1.67 µM and 4.16 µM, respectively. Besides, the 50% inhibitory concentration (IC50) in assay [1] was determined as 59.9 µM; in assay [2], 39.8 µM; in assay [3], 136 µM.

As to `O=C(Nc1ccc(C(=O)NS(=O)(=O)c2ccc(NCCSc3ccccc3)c([N+](=O)[O-])c2)cc1)c1cccc(F)c1`, the Ki in assay [4] was 2.08 µM; in assay [5], 1.4 µM; in assay [6] it was 3.09 µM. Also, the IC50 is 59.5 µM in assay [1], 39.4 µM in assay [2] and more than 168 µM in assay [3].

For the molecule `Cc1ccc(C(=O)Nc2ccc(C(=O)NS(=O)(=O)c3ccc(NCCSc4ccccc4)c([N+](=O)[O-])c3)cc2)cc1`, the IC50 in assay [1] was 53 µM; in assay [2], 38.8 µM; in assay [3], 48.6 µM.

`O=C(Nc1ccc(C(=O)NS(=O)(=O)c2ccc(NCCSc3ccccc3)c([N+](=O)[O-])c2)cc1)c1cccc(Cl)c1`: the IC50 came out at 46.7 µM in assay [1], 37.5 µM in assay [2] and 33.1 µM in assay [3].

For `CC(=O)N[C@@H](CC(C)C)C(=O)Nc1ccc(C(=O)NS(=O)(=O)c2ccc(NCCSc3ccccc3)c([N+](=O)[O-])c2)cc1`, the inhibition constant (Ki) in assay [4] came out at 5.82 µM; in assay [5] it was 3.78 µM; in assay [6], 1.8 µM. Also, the values for the inhibition of growth at 100 µg/mL in assay [7] and in assay [8] were 25.6% and 58.3%, respectively.

`CC[C@H](C)[C@H](NC(C)=O)C(=O)Nc1ccc(C(=O)NS(=O)(=O)c2ccc(NCCSc3ccccc3)c([N+](=O)[O-])c2)cc1`: the Ki stood at 4.84 µM in assay [4], 3.38 µM in assay [5] and 2.29 µM in assay [6]. In addition, the inhibition of growth at 100 µg/mL in assay [7] amounted to 13.5%; in assay [8] it was 40.9%.

As for `CC(=O)N[C@@H](Cc1c[nH]c2ccccc12)C(=O)Nc1ccc(C(=O)NS(=O)(=O)c2ccc(NCCSc3ccccc3)c([N+](=O)[O-])c2)cc1`, the Ki in assay [4] was 6.45 µM; in assay [5] it was 0.83 µM; in assay [6], 4.03 µM. In addition, the figures for the inhibition of growth at 100 µg/mL in assay [7] and in assay [8] were 9.36% and 31.8%, respectively.

With `O=C(NS(=O)(=O)c1ccc(NCCSc2ccccc2)c([N+](=O)[O-])c1)c1ccc(NC(=O)c2ccccc2F)cc1`, the inhibition constant (Ki) is 1.71 µM in assay [4], 1.09 µM in assay [5] and 3.02 µM in assay [6]. Also, the IC50 was found to be 48.1 µM in assay [1], 32.2 µM in assay [2] and 40 µM in assay [3].

`O=C(Nc1ccc(C(=O)NS(=O)(=O)c2ccc(NCCSc3ccccc3)c([N+](=O)[O-])c2)cc1)c1ccc(F)cc1`: the Ki in assay [4] was determined as 1.94 µM; in assay [5], 0.93 µM; in assay [6], 2.54 µM. For the same molecule, the half-maximal inhibitory concentration (IC50) was 57.5 µM in assay [1], 38.6 µM in assay [2] and 78.9 µM in assay [3].

For the molecule `Cc1ccccc1C(=O)Nc1ccc(C(=O)NS(=O)(=O)c2ccc(NCCSc3ccccc3)c([N+](=O)[O-])c2)cc1`, the concentration for half-maximal inhibition (IC50) in assay [1] is 47.6 µM; in assay [2], 38.8 µM; in assay [3] it was 161 µM.

With `COc1ccc(C(=O)Nc2ccc(C(=O)NS(=O)(=O)c3ccc(NCCSc4ccccc4)c([N+](=O)[O-])c3)cc2)cc1`, the inhibition constant (Ki) was 1.27 µM in assay [4], 0.8 µM in assay [5] and 3.11 µM in assay [6]. Besides, the IC50 in assay [1] is 36.1 µM; in assay [2], 22.9 µM; in assay [3] it was 14.6 µM.

On to `CN(C)CC[C@H](CSc1ccccc1)Nc1ccc(S(=O)(=O)NC(=O)c2ccc(N3CCN(Cc4ccccc4-c4ccc(Cl)cc4)CC3)cc2)cc1[N+](=O)[O-]` [ABT 737], for which the concentration for half-maximal inhibition (IC50) was more than 123 µM in assay [1], 93.5 µM in assay [2] and 47.7 µM in assay [3]. In addition, the inhibition of growth at 100 µg/mL in assay [7] was 55.4%; in assay [8] it was 42.5%.

Consider `O=C(Nc1ccc(C(=O)NS(=O)(=O)c2ccc(NCCSc3ccccc3)c([N+](=O)[O-])c2)cc1)c1ccc(Cl)cc1`, for which the concentration for half-maximal inhibition (IC50) is 49.9 µM in assay [1], 37.5 µM in assay [2] and 43.4 µM in assay [3].

Turning to `CC(=O)N[C@H](C(=O)Nc1ccc(C(=O)NS(=O)(=O)c2ccc(NCCSc3ccccc3)c([N+](=O)[O-])c2)cc1)C(C)C`, the inhibitory constant (Ki) in assay [4] is 16.4 µM; in assay [5], 9.49 µM; in assay [6] it was 3.27 µM. Further, the inhibition of growth at 100 µg/mL in assay [7] is 6.33%; in assay [8], 8.85%.

Turning to `O=C(Nc1ccc(C(=O)NS(=O)(=O)c2ccc(NCCSc3ccccc3)c([N+](=O)[O-])c2)cc1)c1ccc(Br)cc1`, the inhibition constant Ki in assay [4] came out at 1.5 µM; in assay [5], 0.76 µM; in assay [6] it was 4.1 µM. For the same molecule, the IC50 is 39.5 µM in assay [1], 35 µM in assay [2] and 10.5 µM in assay [3].

Regarding `CC(=O)N[C@@H](Cc1ccccc1)C(=O)Nc1ccc(C(=O)NS(=O)(=O)c2ccc(NCCSc3ccccc3)c([N+](=O)[O-])c2)cc1`, the values for the inhibition constant Ki in assay [4], in assay [5] and in assay [6] were 3.42 µM, 3.39 µM and 3.11 µM, respectively. Further, the figures for the inhibition of growth at 100 µg/mL in assay [7] and in assay [8] were 36.6% and 26.8%, respectively.

For the molecule `O=C(NS(=O)(=O)c1ccc(NCCSc2ccccc2)c([N+](=O)[O-])c1)c1ccc(NC(=O)c2ccccc2Cl)cc1`, the figures for the half-maximal inhibitory concentration (IC50) in assay [1], in assay [2] and in assay [3] were 69.9 µM, 41.2 µM and more than 164 µM, respectively.

With `O=C(NS(=O)(=O)c1ccc(NCCSc2ccccc2)c([N+](=O)[O-])c1)c1ccc(NS(=O)(=O)c2ccccc2)cc1`, the results for the Ki in assay [4], in assay [5] and in assay [6] were 2.29 µM, 15.2 µM and 7.22 µM, respectively. Moreover, the concentration for half-maximal inhibition (IC50) in assay [1] was more than 163 µM; in assay [2] it was more than 163 µM; in assay [3], 163 µM.

Consider `CSCC[C@H](NC(C)=O)C(=O)Nc1ccc(C(=O)NS(=O)(=O)c2ccc(NCCSc3ccccc3)c([N+](=O)[O-])c2)cc1`, for which the Ki in assay [4] turned out to be 3.91 µM; in assay [5] it was 3.52 µM; in assay [6], 3.11 µM. Besides, the inhibition of growth at 100 µg/mL turned out to be 16% in assay [7] and 40.1% in assay [8].

These data come from ChEMBL document CHEMBL1938241, “Design, synthesis, and activity evaluation of broad-spectrum small-molecule inhibitors of anti-apoptotic Bcl-2 family proteins: characteristics of broad-spectrum protein binding and its effects on anti-tumor activity” (Bioorg Med Chem Lett, 2012).
